# According to US6861236B2, “Export and modification of (poly)peptides in the lantibiotic way” (Applied Nanosystems B.V., priority 2002, dated 2005):
# Tested on: nisin sensitive strain
# Test: agar well (halo) assay for antibacterial activity
# Assay type: cell-based
# Details: Example 5: trypsin-treated ziptipped material/crude supernatant of E. coli SF120 with NisABTC
# Procedure: The above ZIPTIPPED™ material and the crude supernatant is treated after outer membrane disruption with trypsin. This material is applied to the agar well assay to determine antibacterial activity.
# Materials and methods. […] NZ9000+pNG-NisABTC were grown and induced. The supernatant is analyzed as in Example 1. Trypsin treated supernatant was subjected to the agar well assay by pouring the trypsinated supernatant in an agar well and overlaying with a nisin sensitive strain.
# The mutation was checked by PCR and sequencing. The above-generated ΔNisP strain was grown overnight in M17 medium (Terzaghi and Sandine, 1975, Appl. Microbiol. 29: 807-813), diluted 100 fold and grown to OD600 equal to 0.4. […] After 1, 2 and 3 hours, more 0.2 mM pmsf, 0.2 mM TPCK are added and followed by overnight incubation. […] Elution and experiments a) and b).
substance,measurement,value
nisin,antimicrobial activity in the agar well assay,antimicrobial activity
